Reference: patent US8530475B2, “Bridged aryl piperazines derivatives useful for the treatment of CNS, GI-urinary and reproductive disorders” (Janssen Pharmaceutica NV, priority 2006, dated 2013)
Where “and” joins values, the source holds several entries; their conditions need not be identical. Identical values can stand only once. Like-named read-outs stand apart in the source and are kept apart here.

Tests used:
human 5HT1A receptor [1] = molecular target: T1, human 5HT1A receptor (Homo sapiens, UniProt P08908); assay: [35S]GTPγS binding for 5-HT1A receptor inhibition (antagonist mode); assay type: biochemical; settings: Example 78, HEK293 membranes, antagonist mode with serotonin 100 nM, <5 = not active at up to 10 μM; for IC50: read-out: h5HT1A Antagonist pIC50 (converted)
T1 construct: purchased Perkin Elmer; host or cells: HEK293 cells, stably transfected (membranes)
T1 sequence (P08908 1-422): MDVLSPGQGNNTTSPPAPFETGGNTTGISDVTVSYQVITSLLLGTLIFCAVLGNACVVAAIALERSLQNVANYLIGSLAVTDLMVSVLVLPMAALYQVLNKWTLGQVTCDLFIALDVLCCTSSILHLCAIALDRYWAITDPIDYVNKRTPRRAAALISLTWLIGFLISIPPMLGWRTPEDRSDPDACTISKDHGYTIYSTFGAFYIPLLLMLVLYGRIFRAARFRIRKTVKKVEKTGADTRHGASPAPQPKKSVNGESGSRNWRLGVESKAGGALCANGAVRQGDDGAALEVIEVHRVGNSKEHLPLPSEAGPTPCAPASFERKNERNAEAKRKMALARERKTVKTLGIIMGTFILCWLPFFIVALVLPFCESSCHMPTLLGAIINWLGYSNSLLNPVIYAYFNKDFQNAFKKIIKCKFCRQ
Protocol: Compounds showing affinity at the 5-HT1A receptor were tested for functional agonism and antagonism in a [^35S]GTPγS (guanine triphosphate (non-hydrolysable, labelled with ^35S) binding assay on membranes of HEK293 cells permanently transfected with human 5HT1A receptor (Perkin Elmer, USA).
Frozen membranes were thawed, briefly homogenized and were diluted in incubation buffer, 100 mM NaCl, 0.3 mM MgCl2 and 10 μM guanine diphosphate (GDP), pH 7.4-7.5) supplemented with 10 μg/ml saponin. Assay mixtures contained 10 μg of membrane protein and test compound, buffer, or control agonist (serotonin, 10 μM). For the antagonistic assay, control agonist was present in all wells containing compound at a sub-maximal concentration (serotonin, 100 nM). After 20 minutes pre-incubation at 37° C., [^35S]GTPγS was added to a final concentration of 0.25 nM, briefly shaken and further incubated for another 20 minutes. Reactions were terminated by rapid vacuum filtration through GF/B unifilter plates using a Packard Harvester. Filters were washed three times with wash buffer (10 mM NaH2PO4, 10 mM Na2HPO4, pH 7.4), dried overnight and bound counts were measured in a Topcount Scintillation Counter in the presence of Microscint O. % Specific Binding was calculated and curves were plotted with help of in house software where pIC50 values were determined and Kb values were calculated.

human 5-HTT = molecular target: T2, human 5-HTT (Homo sapiens, UniProt P31645); assay: Radioligand binding to 5-HTT (serotonin transporter, SERT), [3H]Paroxetine; settings: membranes of HEK293 cells, [3H]Paroxetine 0.5 nM, <5 = not active at up to 10 μM
T2 construct: purchased Perkin-Elmer, USA; host or cells: HEK293 cells, stably transfected (membranes)
T2 sequence (P31645 whole entry): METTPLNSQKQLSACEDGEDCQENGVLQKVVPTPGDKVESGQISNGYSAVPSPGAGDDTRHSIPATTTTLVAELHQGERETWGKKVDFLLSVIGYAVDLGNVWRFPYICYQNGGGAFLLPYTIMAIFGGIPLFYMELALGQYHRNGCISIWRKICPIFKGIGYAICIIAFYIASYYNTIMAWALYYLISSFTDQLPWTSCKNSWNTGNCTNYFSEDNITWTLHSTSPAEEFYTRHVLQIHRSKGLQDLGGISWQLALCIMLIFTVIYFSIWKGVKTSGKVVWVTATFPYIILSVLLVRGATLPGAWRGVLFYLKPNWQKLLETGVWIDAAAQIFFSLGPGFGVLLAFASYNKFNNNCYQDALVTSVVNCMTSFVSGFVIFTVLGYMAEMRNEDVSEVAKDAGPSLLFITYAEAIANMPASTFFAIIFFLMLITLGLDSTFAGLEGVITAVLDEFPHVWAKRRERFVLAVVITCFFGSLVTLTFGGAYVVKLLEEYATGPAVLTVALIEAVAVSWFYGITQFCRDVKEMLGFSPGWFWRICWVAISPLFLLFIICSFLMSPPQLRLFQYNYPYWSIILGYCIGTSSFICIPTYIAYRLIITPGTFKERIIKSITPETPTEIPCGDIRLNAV
Protocol: For 5-HTT binding, frozen membranes of HEK293 cells stably-transfected with human 5-HTT (Perkin-Elmer, USA) were thawed on ice, briefly homogenised and resuspended in Tris-HCl buffer (50 mM, pH 7.4) supplemented with NaCl (120 mM) and KCl (5 mM) at a concentration of 50 μg protein per incubation mixture. The membrane suspension was added to the test compound together with [^3H]Paroxetine (0.5 nM) in a total volume of 250 μl and incubated (60 min, 25° C.). Non-specific binding was determined in the presence of imipramine (1 μM). Filtration was done over pre-soaked GF/B unifilters (0.01% PEI) and washed as above with the Tris-HCl salt buffer used for the incubation. Specific binding was calculated and sigmoidal curves were plotted by an internally-developed software program based on S-plus software. Ki values were calculated using the Cheng-Prusoff equation.

human 5HT1A receptor [2] = molecular target: T1, human 5HT1A receptor; assay: Radioligand binding to the 5-HT1A receptor, [3H]8-OH-DPAT; settings: Example 77, membranes of HEK293 cells, [3H]8-OH-DPAT 0.5 nM, <5 = not active at up to 10 μM; for IC50: read-out: h5HT1A pIC50 (converted)
Protocol: Frozen membranes of HEK293 cells, stably-transfected with human 5-HT1A receptor (Perkin Elmer) were thawed on ice, briefly homogenised with an Ultra Turrax homogeniser and then suspended in Tris-HCl buffer (50 mM pH 7.7) supplemented with CaCl2 (4 mM) at an appropriate pre-determined protein concentration (5-10 μg protein per incubation mixture). Together with [^3H]8-OH-DPAT (0.5 nM final concentration; Perkin Elmer, USA), the membrane suspension was added to the test compound and incubated (30 min at 37° C.) in a total volume of 400 μl. Non-specific binding was determined in the presence of Spiroxatrine (1 μM). Free radioligand was separated from the radioligand-receptor complex by means of rapid vacuum filtration over GF/B unifilter plates with a Packard Harvester Filtration Unit. Unifilter plates were washed with ice cold Tris-HCl buffer (50 mM, pH 8.0) and then dried overnight. Bound counts were measured in a Topcount Scintillation Counter in the presence of Microscint O.

[3] = Example 77, read-out: h5HTT pIC50 (converted)

SMILES	IC50 (human 5HT1A receptor [1])	IC50 (human 5-HTT; [3])	IC50 (human 5HT1A receptor [2])	h5HTT pIC50 (human 5-HTT; Example 77)	h5HT1A pIC50 (human 5HT1A receptor [2])	h5HT1A Antagonist pIC50 (human 5HT1A receptor [1])	IC50 (human 5-HTT; h5HTT pIC50, Example 77) [nM]
Cc1cc2c(OCCCN3C[C@@H]4C/C=C\C[C@H]3CN4c3ccc4ccccc4c3)cccc2[nH]1 [ID No. 138, 7-[3-(2-Methyl-1H-indol-4-yloxy)-propyl]-9-naphthalen-2-yl-7,9-diaza-bicyclo[4.2.2]dec-3-ene]	11000 nM	28.2 nM	282 nM				
C1=C\C[C@H]2CN[C@@H](C/1)CN2c1cccc2ccccc12 [compound 119]			> 10000 nM				70.8
COC(=O)c1cc2c(OC[C@@H](O)CN3C[C@@H]4C/C=C\C[C@H]3CN4c3ccc4ccccc4c3)ccc(C)c2[nH]1 [compound 127]	> 10000 nM	39.8 nM	363 nM				
C1=C\C[C@H]2CN[C@@H](C/1)CN2c1cccc2ncccc12 [compound 137]	> 10000 nM	676 nM	2340 nM				
COc1cc2c(cc1OC)C1=NO[C@@H](CN3C[C@@H]4C/C=C\C[C@H]3CN4c3ccc4ccccc4c3)C1CO2 (stereo partly drawn) [compound 140]		741 nM	> 10000 nM				
COc1cc2c(cc1OC)C1=NO[C@H](CN3C[C@@H]4C/C=C\C[C@H]3CN4c3ccc4ccccc4c3)C1CO2 (stereo partly drawn) [compound 141]		724 nM	> 10000 nM				
C1=C\C[C@H]2CN(CCNc3ccccn3)[C@@H](C/1)CN2c1ccc2ccccc2c1 [compound 142]	> 10000 nM	102 nM	9770 nM				
COC(=O)c1cc2c(OC[C@@H](O)CN3C[C@@H]4C/C=C\C[C@H]3CN4c3ccc4ccccc4c3)cc(OC)cc2[nH]1 [compound 143]	> 10000 nM	174 nM	240 nM				
C1=C\C[C@H]2CN(c3ccc4ccccc4c3)[C@@H](C/1)CN2C1Cc2ccccc2C1 [compound 150]		1910 nM	> 10000 nM				
Cn1ccc2c(OC[C@@H](O)CN3C[C@H]4C/C=C\C[C@@H]3CN4c3ccc4ccccc4c3)cccc21 [compound 156]	> 10000 nM	29.5 nM	> 10000 nM				
Cc1cc2c(OC[C@@H](O)CN3C[C@@H]4C/C=C\C[C@H]3CN4c3ccc4c(c3)OCCO4)cccc2[nH]1 [compound 159]	47.9 nM	759 nM	10.7 nM				

Second part, led by results:

IC50 (human 5HT1A receptor [1])	IC50 (human 5-HTT; [3])	IC50 (human 5HT1A receptor [2])	h5HTT pIC50 (human 5-HTT; Example 77)	h5HT1A pIC50 (human 5HT1A receptor [2])	h5HT1A Antagonist pIC50 (human 5HT1A receptor [1])	SMILES	IC50 (human 5-HTT; h5HTT pIC50, Example 77) [nM]
309 nM						Cc1cc2c(OC[C@@H](O)CN3C[C@@H]4C/C=C\C[C@H]3CN4c3cccc4ncccc34)cccc2[nH]1 [ID No. 136]	
	85.1 nM	> 10000 nM				C#CCN1C[C@@H]2C/C=C\C[C@H]1CN2c1ccc2ccccc2c1 [compound 41]	
			6.86	6.88	<5	Cc1cc2c(OC[C@H](O)CN3C[C@H]4C/C=C\C[C@@H]3CN4c3ccc4ccccc4c3)cccc2[nH]1 [compound 55]	
> 10000 nM	24 nM	50.1 nM				COC(=O)c1cc2c(OC[C@@H](O)CN3C[C@@H]4C/C=C\C[C@H]3CN4c3ccc4ccccc4c3)cccc2[nH]1 [compound 126]	
> 10000 nM	30.2 nM	562 nM				COC(=O)c1cc2c(OC[C@@H](O)CN3C[C@@H]4C/C=C\C[C@H]3CN4c3ccc4ccccc4c3)ccc(Cl)c2[nH]1 [compound 128]	
813 nM	102 nM	97.7 nM				Cc1cc2c(OC[C@@H](O)CN3C[C@@H]4C/C=C\C[C@H]3CN4c3ccc(Cl)c(Cl)c3)cccc2[nH]1 [compound 135]	
> 10000 nM	53.7 nM	138 nM				Cc1cc2c(OC[C@@H](O)CN3C[C@@H]4C/C=C\C[C@H]3CN4c3ccc4ccccc4c3)c(F)ccc2[nH]1 [compound 148]	
> 10000 nM	57.5 nM	933 nM				Cc1cc2c(OC[C@H](O)CN3CC4CC=CCC3CN4c3ccc4ccccc4c3)cccc2[nH]1 (stereo partly drawn) [compound 153]	
> 10000 nM	55 nM	724 nM				Cc1cc2c(OC[C@@H](O)CN3C[C@@H]4C/C=C\C[C@H]3CN4c3ccc4ccccc4c3)c(C)ccc2[nH]1 [compound 154]	
> 10000 nM and 6310 nM	110 nM and 214 nM	52.5 nM and 115 nM				Cc1cc2c(OC[C@@H](O)CN3CC4CC=CCC3CN4c3ccc4ccccc4c3)cccc2[nH]1 (stereo partly drawn) [compound 155]	
759 nM						Cc1cc2c(OC[C@@H](O)CN3C[C@@H]4C/C=C\C[C@H]3CN4c3cccc4ncccc34)cccc2[nH]1 [compound 157]	
1150 nM	251 nM	126 nM				Cc1cc2c(OC[C@@H](O)CN3C[C@@H]4C/C=C\C[C@H]3CN4c3cnc4ccccc4c3)cccc2[nH]1 [compound 158]	
851 nM	63.1 nM	355 nM				O[C@H](COc1cccc2ncccc12)CN1C[C@@H]2C/C=C\C[C@H]1CN2c1ccc2ccccc2c1 [compound 160]	
